Reference: US10538555B2, “Macrocyclic inhibitors of the PD-1/PD-L1 and CD80(B7-1)/PD-L1 protein/protein interactions” (BRISTOL-MYERS SQUIBB COMPANY, priority 2014, dated 2020)
Where a SMILES comes first, the peptide text is derived from it. Bridges are numbered along the chain shown (N, C = ends). [ ]: non-standard residue; d: D form. ξ: configuration not given here. Phe(3,4,5-F3) = N[C@@H](Cc1cc(F)c(F)c(F)c1)C(=O)O; Hyp = O=C(O)[C@@H]1C[C@@H](O)CN1; NMeF = CN[C@@H](Cc1ccccc1)C(=O)O; NMeNle = CCCC[C@H](NC)C(=O)O; hSer = N[C@@H](CCO)C(=O)O; NMeA = CN[C@@H](C)C(=O)O; Orn = NCCC[C@H](N)C(=O)O; dNMeA = CN[C@H](C)C(=O)O; Dab = NCC[C@H](N)C(=O)O; ξC = NC(CS)C(=O)O

Molecular target: T1, Human PD-L1/PD-1 (Homo sapiens, UniProt Q9NZQ7)
T1 construct: TVMV protease cleavage site (C); made in house; host or cells: HEK293T cells
T1 sequence (Q9NZQ7 with tags, fused parts or gaps): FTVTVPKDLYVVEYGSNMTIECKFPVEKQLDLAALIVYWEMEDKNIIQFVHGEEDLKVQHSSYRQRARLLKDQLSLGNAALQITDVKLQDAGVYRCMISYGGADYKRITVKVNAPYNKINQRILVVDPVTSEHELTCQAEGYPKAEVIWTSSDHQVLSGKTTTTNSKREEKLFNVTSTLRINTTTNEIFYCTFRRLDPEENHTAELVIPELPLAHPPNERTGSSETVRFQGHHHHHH
Test: HTRF Human PD-L1/PD-1 binding assay (PD-1-Ig/PD-L1-His)
Details: PD-L1-His 10 nM, PD-1-Ig 20 nM; class symbol; read-out: HTRF Human PD-L1/PD-1 Binding Assay IC50 Range
How it was run: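 HTRF competition using HEK293T-expressed human PD-1(25-167)-Ig at 20 nM and PD-L1(18-239)-His at 10 nM, compound incubated first with PD-L1 for 15 min, then with PD-1 for 15 min. Signal read as 665/620 nm ratio 30 min after adding Eu anti-Ig and APC anti-His antibodies.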

**Q.** How did the IC50 turn out when `CCCC[C@H]1C(=O)N(C)[C@@H](CCCC)C(=O)N[C@@H](CCC(=O)O)C(=O)NC(C(=O)NCC(N)=O)CSCC(=O)N[C@@H](Cc2ccc(O)cc2)C(=O)N(C)[C@@H](C)C(=O)N[C@@H](CC(N)=O)C(=O)N2CCC[C@H]2C(=O)N[C@@H](Cc2c[nH]cn2)C(=O)N[C@@H](CC(N)=O)C(=O)N2CCC[C@H]2C(=O)N[C@@H](Cc2c[nH]c3ccccc23)C(=O)N[C@@H](CCN)C(=O)N[C@@H](Cc2c[nH]c3ccccc23)C(=O)N1C` (stereo partly drawn) [Example 9182] ({CH2CO}-Y[NMeA]NPHNPW[Dab]W[NMeNle][NMeNle]E[ξC]G-NH2; thioether N-14) was run?
**A.** 1 to 9.9 nM

**Q.** With `CCCC[C@H]1C(=O)N(C)[C@@H](CCCC)C(=O)N[C@@H](CCC(=O)O)C(=O)NC(C(=O)NCC(N)=O)CSCC(=O)N[C@@H](Cc2ccc(O)cc2)C(=O)N(C)[C@@H](C)C(=O)N[C@@H](CC(N)=O)C(=O)N2CCC[C@H]2C(=O)N[C@@H](Cc2c[nH]cn2)C(=O)N[C@@H](CC(N)=O)C(=O)N2C[C@H](O)C[C@H]2C(=O)N[C@@H](Cc2c[nH]c3ccccc23)C(=O)N[C@@H](CCN)C(=O)N[C@@H](Cc2c[nH]c3ccccc23)C(=O)N1C` (stereo partly drawn) [Example 9183] ({CH2CO}-Y[NMeA]NPHN[Hyp]W[Dab]W[NMeNle][NMeNle]E[ξC]G-NH2; thioether N-14) as the compound, how does the IC50 read?
**A.** 1 to 9.9 nM

**Q.** Which IC50 does the source give for `CCCC[C@H]1C(=O)N(C)[C@@H](CCCC)C(=O)N[C@@H](CCC(=O)O)C(=O)NC(C(=O)NCC(N)=O)CSCC(=O)N[C@@H](Cc2ccc(O)cc2)C(=O)N(C)[C@@H](C)C(=O)N[C@@H](CC(N)=O)C(=O)N2CCC[C@H]2C(=O)N[C@@H](CC(N)=O)C(=O)N[C@@H](CC(C)C)C(=O)N2CCC[C@H]2C(=O)N[C@@H](Cc2c[nH]c3ccccc23)C(=O)N[C@@H](CCO)C(=O)N[C@@H](Cc2c[nH]c3ccccc23)C(=O)N1C` (stereo partly drawn) [Example 9184] ({CH2CO}-Y[NMeA]NPNLPW[hSer]W[NMeNle][NMeNle]E[ξC]G-NH2; thioether N-14) here?
**A.** 10 to 99.9 nM

**Q.** With `CCCC[C@H]1C(=O)N(C)[C@@H](CCCC)C(=O)N[C@@H](CCC(=O)O)C(=O)NC(C(=O)NCC(N)=O)CSCC(=O)N[C@@H](Cc2ccc(O)cc2)C(=O)N(C)[C@@H](C)C(=O)N[C@@H](CC(N)=O)C(=O)N2CCC[C@H]2C(=O)N[C@@H](CC(N)=O)C(=O)N[C@@H](CC(C)C)C(=O)N2C[C@H](O)C[C@H]2C(=O)N[C@@H](Cc2c[nH]c3ccccc23)C(=O)N[C@@H](CCO)C(=O)N[C@@H](Cc2c[nH]c3ccccc23)C(=O)N1C` (stereo partly drawn) [Example 9185] ({CH2CO}-Y[NMeA]NPNL[Hyp]W[hSer]W[NMeNle][NMeNle]E[ξC]G-NH2; thioether N-14) as the compound, how does the IC50 read?
**A.** 1 to 9.9 nM

**Q.** Which IC50 does the source give for `CCCC[C@H]1C(=O)N(C)[C@@H](CCCC)C(=O)N[C@@H](CCC(=O)O)C(=O)NC(C(=O)NCC(N)=O)CSCC(=O)N[C@@H](Cc2ccc(O)cc2)C(=O)N(C)[C@@H](C)C(=O)N[C@@H](CC(N)=O)C(=O)N2CCC[C@H]2C(=O)N[C@@H](Cc2c[nH]cn2)C(=O)N[C@@H](CC(N)=O)C(=O)N2CCC[C@H]2C(=O)N[C@@H](Cc2c[nH]c3ccccc23)C(=O)N[C@@H](CCO)C(=O)N[C@@H](Cc2c[nH]c3ccccc23)C(=O)N1C` (stereo partly drawn) [Example 9186] ({CH2CO}-Y[NMeA]NPHNPW[hSer]W[NMeNle][NMeNle]E[ξC]G-NH2; thioether N-14) here?
**A.** 10 to 99.9 nM

**Q.** For `CCCC[C@H]1C(=O)N(C)[C@@H](CCCC)C(=O)N[C@@H](CCC(=O)O)C(=O)NC(C(=O)NCC(N)=O)CSCC(=O)N[C@@H](Cc2ccc(O)cc2)C(=O)N(C)[C@@H](C)C(=O)N[C@@H](CC(N)=O)C(=O)N2CCC[C@H]2C(=O)N[C@@H](Cc2c[nH]cn2)C(=O)N[C@@H](CC(N)=O)C(=O)N2C[C@H](O)C[C@H]2C(=O)N[C@@H](Cc2c[nH]c3ccccc23)C(=O)N[C@@H](CCO)C(=O)N[C@@H](Cc2c[nH]c3ccccc23)C(=O)N1C` (stereo partly drawn) [Example 9187] ({CH2CO}-Y[NMeA]NPHN[Hyp]W[hSer]W[NMeNle][NMeNle]E[ξC]G-NH2; thioether N-14), which IC50 is on record?
**A.** 1 to 9.9 nM

**Q.** With `CC(C)C[C@@H]1NC(=O)[C@H](Cc2ccc(O)cc2)NC(=O)[C@H](Cc2c[nH]c3ccccc23)NC(=O)[C@@H](C)N(C)C(=O)[C@H](Cc2ccc(O)cc2)NC(=O)[C@H](Cc2ccccc2)N(C)C(=O)[C@H](C(C)C)NC(=O)[C@H](CC(=O)O)NC(=O)[C@@H](C)N(C)C(=O)[C@H](C)N(C)C(=O)[C@H](Cc2ccccc2)N(C)C(=O)[C@H](Cc2cc(F)c(F)c(F)c2)NC(=O)CSC[C@@H](C(=O)NCC(N)=O)NC1=O` [Example 9188] ({CH2CO}-[Phe(3,4,5-F3)][NMeF][NMeA][dNMeA]DV[NMeF]Y[dNMeA]WYLCG-NH2; thioether N-13) as the compound, how does the IC50 read?
**A.** 1 to 9.9 nM

**Q.** With `CC(C)C[C@@H]1NC(=O)[C@H](Cc2ccc(O)cc2)NC(=O)[C@H](Cc2c[nH]c3ccccc23)NC(=O)[C@@H](C)N(C)C(=O)[C@H](Cc2ccc(O)cc2)NC(=O)[C@H](Cc2ccccc2)N(C)C(=O)[C@H](C(C)C)NC(=O)[C@H](CCC(=O)O)NC(=O)[C@@H](C)N(C)C(=O)[C@H](C)N(C)C(=O)[C@H](Cc2ccccc2)N(C)C(=O)[C@H](Cc2cc(F)c(F)c(F)c2)NC(=O)CSC[C@@H](C(=O)NCC(N)=O)NC1=O` [Example 9189] ({CH2CO}-[Phe(3,4,5-F3)][NMeF][NMeA][dNMeA]EV[NMeF]Y[dNMeA]WYLCG-NH2; thioether N-13) as the compound, how does the IC50 read?
**A.** 1 to 9.9 nM

**Q.** For `CC(C)C[C@@H]1NC(=O)[C@H](Cc2ccc(O)cc2)NC(=O)[C@H](Cc2c[nH]c3ccccc23)NC(=O)[C@@H](C)N(C)C(=O)[C@H](Cc2ccc(O)cc2)NC(=O)[C@H](Cc2ccccc2)N(C)C(=O)[C@H](C(C)C)NC(=O)[C@H](CC(N)=O)NC(=O)[C@@H](C)N(C)C(=O)[C@H](C)N(C)C(=O)[C@H](Cc2ccccc2)N(C)C(=O)[C@H](Cc2cc(F)c(F)c(F)c2)NC(=O)CSC[C@@H](C(=O)NCC(N)=O)NC1=O` [Example 9190] ({CH2CO}-[Phe(3,4,5-F3)][NMeF][NMeA][dNMeA]NV[NMeF]Y[dNMeA]WYLCG-NH2; thioether N-13), which IC50 is on record?
**A.** 10 to 99.9 nM

**Q.** With `CC(C)C[C@@H]1NC(=O)[C@H](Cc2ccc(O)cc2)NC(=O)[C@H](Cc2c[nH]c3ccccc23)NC(=O)[C@@H](C)N(C)C(=O)[C@H](Cc2ccc(O)cc2)NC(=O)[C@H](Cc2ccccc2)N(C)C(=O)[C@H](C(C)C)NC(=O)[C@H](CCC(N)=O)NC(=O)[C@@H](C)N(C)C(=O)[C@H](C)N(C)C(=O)[C@H](Cc2ccccc2)N(C)C(=O)[C@H](Cc2cc(F)c(F)c(F)c2)NC(=O)CSC[C@@H](C(=O)NCC(N)=O)NC1=O` [Example 9191] ({CH2CO}-[Phe(3,4,5-F3)][NMeF][NMeA][dNMeA]QV[NMeF]Y[dNMeA]WYLCG-NH2; thioether N-13) as the compound, how does the IC50 read?
**A.** 10 to 99.9 nM

**Q.** Which IC50 does the source give for `CC(C)[C@@H]1NC(=O)[C@H](CC(=O)O)NC(=O)[C@@H](C)N(C)C(=O)[C@H](C)N(C)C(=O)[C@H](Cc2ccccc2)N(C)C(=O)[C@H](Cc2cc(F)c(F)c(F)c2)NC(=O)CSC[C@@H](C(=O)NCC(N)=O)NC(=O)[C@H](CCCN)NC(=O)[C@H](Cc2ccc(O)cc2)NC(=O)[C@H](Cc2c[nH]c3ccccc23)NC(=O)[C@@H](C)N(C)C(=O)[C@H](Cc2ccc(O)cc2)NC(=O)[C@H](Cc2ccccc2)N(C)C1=O` [Example 9193] ({CH2CO}-[Phe(3,4,5-F3)][NMeF][NMeA][dNMeA]DV[NMeF]Y[dNMeA]WY[Orn]CG-NH2; thioether N-13) here?
**A.** 1 to 9.9 nM

**Q.** With `CC(C)[C@@H]1NC(=O)[C@H](CCC(=O)O)NC(=O)[C@@H](C)N(C)C(=O)[C@H](C)N(C)C(=O)[C@H](Cc2ccccc2)N(C)C(=O)[C@H](Cc2cc(F)c(F)c(F)c2)NC(=O)CSC[C@@H](C(=O)NCC(N)=O)NC(=O)[C@H](CCCN)NC(=O)[C@H](Cc2ccc(O)cc2)NC(=O)[C@H](Cc2c[nH]c3ccccc23)NC(=O)[C@@H](C)N(C)C(=O)[C@H](Cc2ccc(O)cc2)NC(=O)[C@H](Cc2ccccc2)N(C)C1=O` [Example 9194] ({CH2CO}-[Phe(3,4,5-F3)][NMeF][NMeA][dNMeA]EV[NMeF]Y[dNMeA]WY[Orn]CG-NH2; thioether N-13) as the compound, how does the IC50 read?
**A.** 1 to 9.9 nM

**Q.** For `CC(C)[C@@H]1NC(=O)[C@H](CC(N)=O)NC(=O)[C@@H](C)N(C)C(=O)[C@H](C)N(C)C(=O)[C@H](Cc2ccccc2)N(C)C(=O)[C@H](Cc2cc(F)c(F)c(F)c2)NC(=O)CSC[C@@H](C(=O)NCC(N)=O)NC(=O)[C@H](CCCN)NC(=O)[C@H](Cc2ccc(O)cc2)NC(=O)[C@H](Cc2c[nH]c3ccccc23)NC(=O)[C@@H](C)N(C)C(=O)[C@H](Cc2ccc(O)cc2)NC(=O)[C@H](Cc2ccccc2)N(C)C1=O` [Example 9195] ({CH2CO}-[Phe(3,4,5-F3)][NMeF][NMeA][dNMeA]NV[NMeF]Y[dNMeA]WY[Orn]CG-NH2; thioether N-13), which IC50 is on record?
**A.** 1 to 9.9 nM

Same assay, conditions: PD-L1-His 10 nM, PD-1-Ig 20 nM; read-out: HTRF Human PD-L1/PD-1 Binding Assay IC50

**Q.** Which IC50 does the source give for `CC(C)C[C@@H]1NC(=O)[C@H](Cc2ccc(O)cc2)NC(=O)[C@H](Cc2c[nH]c3ccccc23)NC(=O)[C@@H](C)N(C)C(=O)[C@H](Cc2ccc(O)cc2)NC(=O)[C@H](Cc2ccccc2)N(C)C(=O)[C@H](C(C)C)NC(=O)[C@H](CCO)NC(=O)[C@@H](C)N(C)C(=O)[C@H](C)N(C)C(=O)[C@H](Cc2ccccc2)N(C)C(=O)[C@H](Cc2cc(F)c(F)c(F)c2)NC(=O)CSC[C@@H](C(=O)NCC(N)=O)NC1=O` [Example 9192] ({CH2CO}-[Phe(3,4,5-F3)][NMeF][NMeA][dNMeA][hSer]V[NMeF]Y[dNMeA]WYLCG-NH2; thioether N-13) here?
**A.** 14 nM

**Q.** How did the IC50 turn out when `CC(C)[C@@H]1NC(=O)[C@H](CCC(N)=O)NC(=O)[C@@H](C)N(C)C(=O)[C@H](C)N(C)C(=O)[C@H](Cc2ccccc2)N(C)C(=O)[C@H](Cc2cc(F)c(F)c(F)c2)NC(=O)CSC[C@@H](C(=O)NCC(N)=O)NC(=O)[C@H](CCCN)NC(=O)[C@H](Cc2ccc(O)cc2)NC(=O)[C@H](Cc2c[nH]c3ccccc23)NC(=O)[C@@H](C)N(C)C(=O)[C@H](Cc2ccc(O)cc2)NC(=O)[C@H](Cc2ccccc2)N(C)C1=O` [Example 9196] ({CH2CO}-[Phe(3,4,5-F3)][NMeF][NMeA][dNMeA]QV[NMeF]Y[dNMeA]WY[Orn]CG-NH2; thioether N-13) was run?
**A.** 4.5 nM
